The text below walks through data of patent US4626533A, “7-(2-thienylacetamido)-3-acylaminomethyl-cephalosporins” (Biogal Gyogyszergyar, priority 1983, dated 1986).

A value given as a limit tells only on which side of the number the result lay.

The assay relates to Gram-negative strains. Nature of the assay: MIC determination, Gram-negative strains. In kind it is cell-based. The following applies: range over Gram-negative strains. The protocol:
The examinations were carried out by using the bacteria strains listed hereinbelow: Gram-negative strains E. coli 35034 Klebsiella 52001 Klebsiella ATCC 1200 S. hartford 10063 P. mirabilis 60012 P. morganii 63002 P. rettgeri 65002 P. inconstans 67001 P. aeruginosa ATCC 27853

`CC(=O)NCC1=C(C(=O)O)N2C(=O)C(NC(=O)CSc3nnc(-c4ccccc4)o3)[C@H]2SC1` (stereo partly drawn) [Example 8, 7-(2-phenyl-1,3,4-oxadiazole-5-ylthio)acetylamino-3-acetylaminomethylceph-3-em-4-carboxylic acid] displayed an MIC of more than 100 µg/mL.
Under `Cn1nnnc1SCC(=O)NC1C(=O)N2C(C(=O)O)=C(CNC(=O)c3c(Cl)cccc3Cl)CSC12` (stereo not drawn) [Example 14, 7-(1-methyl-1H-tetrazole-5-ylthio)acetamido-3-(2,6-dichlorobenzamino)methylceph-3-em-4-carboxylic acid] stands more than 100 µg/mL; under `O=C(CSc1nnc(-c2ccccc2)o1)NC1C(=O)N2C(C(=O)O)=C(CNC(=O)c3c(Cl)cccc3Cl)CS[C@H]12` (stereo partly drawn) [Example 15, 7-(2-phenyl-1,3,4-oxadiazole-5-ylthio)acetamido-3-(2,6-dichlorobenzoylamino)methylceph-3-em-4-carboxylic acid], more than 100 µg/mL.
